For orientation: IC50 means the concentration that gives 50% inhibition. Broadly, the Km is the substrate concentration at which the rate is half of its maximum.

Data set [1] deals with T1, Cytochrome P450 1B1 (CYP1B1) (Homo sapiens, UniProt Q16678).
T1 sequence (Q16678 1-543): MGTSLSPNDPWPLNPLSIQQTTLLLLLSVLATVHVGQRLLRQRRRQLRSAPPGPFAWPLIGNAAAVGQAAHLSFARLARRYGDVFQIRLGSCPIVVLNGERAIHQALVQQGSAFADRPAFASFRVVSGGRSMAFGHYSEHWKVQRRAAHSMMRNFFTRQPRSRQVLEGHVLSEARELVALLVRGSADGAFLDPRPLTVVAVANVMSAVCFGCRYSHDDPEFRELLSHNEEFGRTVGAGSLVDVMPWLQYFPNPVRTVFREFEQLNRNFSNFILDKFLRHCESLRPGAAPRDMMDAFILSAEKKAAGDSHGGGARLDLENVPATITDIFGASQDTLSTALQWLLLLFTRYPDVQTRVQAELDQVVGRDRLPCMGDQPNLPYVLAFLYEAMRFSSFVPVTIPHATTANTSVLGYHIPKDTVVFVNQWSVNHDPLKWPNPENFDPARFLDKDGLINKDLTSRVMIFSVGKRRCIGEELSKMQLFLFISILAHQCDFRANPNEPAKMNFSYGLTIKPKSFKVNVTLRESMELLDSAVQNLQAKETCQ
Kind of data set: recombinant human CYP1B1 ethoxyresorufin O-deethylation fluorescence assay; Michaelis-Menten and Lineweaver-Burk kinetics. It is filed as biochemical.

Substrate in data set [2]: CCOc1ccc2nc3ccc(=O)cc-3oc2c1
As to the kind of experiment: Michaelis-Menten kinetics of O-deethylation by recombinant CYP1B1 (Km). It is filed as biochemical, Homo sapiens. The following applies: heme; NADPH.

Consider proanthocyanidin [PA], for which, in data set [1], the IC50 came out at 2530 ± 10 nM.

B1: Cytochrome P450 1B1 (CYP1B1) (Homo sapiens) (protein)
chain: T1 sequence (Q16678 1-543)
Turning to B1, the Km in data set [2] turned out to be 236 ± 74 µM.

The values above are taken from article PMC12397248, “Proanthocyanidins inhibit CYP1B1 through mixed-type kinetics and stable binding in molecular dynamics simulations” (Scientific Reports, 2025).
